Measurements published in the supplement of paper PMC12137928.
Structures can show the parent of a compound that is named as a salt.

Tested on: HCT116
Details: 72 h
Procedure, shortened: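 In 1536-well plates, 250 HCT116 cells per well were seeded and left for 5 h to attach. Luminescence from CellTiter-Glo was set against vehicle (0%) and positive control (-100%), and pattern correction was applied. IC50 and maximal efficacy come from four-parameter Hill fitting.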

COc1ccc(CNc2nc(N3CCC[C@H]3CO)ncc2C(=O)NCc2ncccn2)cc1Cl [Avanafil]
IC50 cell viability (ICRF193 0 nM): > 45.8 µM | IC50 cell viability (ICRF193 200 nM): > 45.8 µM

NC(=O)[C@@H]1CC[C@@H]2CN1C(=O)N2OS(=O)(=O)O [Avibactam sodium]
IC50 cell viability (ICRF193 0 nM): > 45.8 µM | IC50 cell viability (ICRF193 200 nM): > 45.8 µM

COc1ccc(C(=O)CC(=O)c2ccc(C(C)(C)C)cc2)cc1 [Avobenzone]
IC50 cell viability (ICRF193 0 nM): > 45.8 µM | IC50 cell viability (ICRF193 200 nM): > 45.8 µM

CCCC1C(=O)N2C(N(C)C)=Nc3ccc(C)cc3N2C1=O (centres undefined) [Azapropazone]
IC50 cell viability (ICRF193 0 nM): > 45.8 µM | IC50 cell viability (ICRF193 200 nM): > 45.8 µM

CN1CCC(=C2c3ccccc3CCc3cccnc32)CC1 [Azatadine]
IC50 cell viability (ICRF193 0 nM): > 45.8 µM | IC50 cell viability (ICRF193 200 nM): > 45.8 µM

CCOc1nc2cccc(C(=O)O)c2n1Cc1ccc(-c2ccccc2-c2noc(=O)[nH]2)cc1 [Azilsartan (TAK-536)]
IC50 cell viability (ICRF193 0 nM): > 45.8 µM | IC50 cell viability (ICRF193 200 nM): > 45.8 µM

CCOc1nc2cccc(C(=O)OCc3oc(=O)oc3C)c2n1Cc1ccc(-c2ccccc2-c2noc(=O)[nH]2)cc1 [Azilsartan Medoxomil]
IC50 cell viability (ICRF193 0 nM): > 45.8 µM | IC50 cell viability (ICRF193 200 nM): > 45.8 µM

NS(=O)(=O)c1cc(-c2nnn[nH]2)c(NCc2cccs2)cc1Cl [Azosemide]
IC50 cell viability (ICRF193 0 nM): > 45.8 µM | IC50 cell viability (ICRF193 200 nM): > 45.8 µM

C[C@H]1[C@H](NC(=O)/C(=N\OC(C)(C)C(=O)O)c2csc(N)n2)C(=O)N1S(=O)(=O)O [Aztreonam]
IC50 cell viability (ICRF193 0 nM): > 45.8 µM | IC50 cell viability (ICRF193 200 nM): > 45.8 µM

CCCCC(CC)COc1ccc(-c2nc(-c3ccc(OC)cc3)nc(-c3ccc(OCC(CC)CCCC)cc3O)n2)c(O)c1 (centres undefined) [BEMOTRIZINOL]
IC50 cell viability (ICRF193 0 nM): > 45.8 µM | IC50 cell viability (ICRF193 200 nM): > 45.8 µM

O=C(OCc1ccccc1)c1cccnc1 [BENZYL NICOTINATE]
IC50 cell viability (ICRF193 0 nM): > 45.8 µM | IC50 cell viability (ICRF193 200 nM): > 45.8 µM

O=C(OCCO)c1ccccc1O [BETA-HYDROXYETHYL SALICYLATE]
IC50 cell viability (ICRF193 0 nM): > 45.8 µM | IC50 cell viability (ICRF193 200 nM): > 45.8 µM

CCC(=O)OCC(=O)[C@@]1(OC(=O)CC)[C@@H](C)C[C@H]2[C@@H]3CCC4=CC(=O)C=C[C@]4(C)[C@@]3(F)[C@@H](O)C[C@@]21C [BETAMETHASONE 17,21-DIPROPIONATE]
IC50 cell viability (ICRF193 0 nM): > 45.8 µM | IC50 cell viability (ICRF193 200 nM): > 45.8 µM

CCCCCCOC(=O)NC(=N)c1ccc(NCc2nc3cc(C(=O)N(CCC(=O)OCC)c4ccccn4)ccc3n2C)cc1 [BIBR-1048]
IC50 cell viability (ICRF193 0 nM): > 45.8 µM | IC50 cell viability (ICRF193 200 nM): > 45.8 µM

CC(O)(CS(=O)(=O)c1ccc(F)cc1)C(=O)Nc1ccc(C#N)c(C(F)(F)F)c1 (centres undefined) [BICALUTAMIDE]
IC50 cell viability (ICRF193 0 nM): > 45.8 µM | IC50 cell viability (ICRF193 200 nM): > 45.8 µM

CC1(C)C2CCC1(C)C(O)C2 (centres undefined) [BORNEOL]
IC50 cell viability (ICRF193 0 nM): > 45.8 µM | IC50 cell viability (ICRF193 200 nM): > 45.8 µM

CC(=O)OC1CC2CCC1(C)C2(C)C (centres undefined) [BORNYL ACETATE]
IC50 cell viability (ICRF193 0 nM): > 45.8 µM | IC50 cell viability (ICRF193 200 nM): > 45.8 µM

CC(C)(C)NCC(O)COc1ccccc1C#N (centres undefined) [BUNITROLOL]
IC50 cell viability (ICRF193 0 nM): > 45.8 µM | IC50 cell viability (ICRF193 200 nM): > 45.8 µM

CCOC(=O)OC(C)OC(=O)[C@@H]1N2C(=O)[C@@H](NC(=O)[C@H](N)c3ccccc3)[C@H]2SC1(C)C (some centres undefined) [Bacampicillin hydrochloride]
IC50 cell viability (ICRF193 0 nM): > 45.8 µM | IC50 cell viability (ICRF193 200 nM): > 45.8 µM

CC[C@H](C)[C@H](N)C1=N[C@H](C(=O)N[C@@H](CC(C)C)C(=O)N[C@H](CCC(=O)O)C(=O)N[C@H](C(=O)N[C@H]2CCCCNC(=O)[C@H](CC(N)=O)NC(=O)[C@@H](CC(=O)O)NC(=O)[C@H](Cc3cnc[nH]3)NC(=O)[C@@H](Cc3ccccc3)NC(=O)[C@H]([C@@H](C)CC)NC(=O)[C@@H](CCCN)NC2=O)[C@@H](C)CC)CS1 [Bacitracin]
IC50 cell viability (ICRF193 0 nM): > 45.8 µM | IC50 cell viability (ICRF193 200 nM): > 45.8 µM

NCC(CC(=O)O)c1ccc(Cl)cc1 (centres undefined) [Baclofen]
IC50 cell viability (ICRF193 0 nM): > 45.8 µM | IC50 cell viability (ICRF193 200 nM): > 45.8 µM

CNC1CCCN(c2c(F)cc3c(=O)c(C(=O)O)cn(C4CC4)c3c2OC)C1 (centres undefined) [Balofloxacin]
IC50 cell viability (ICRF193 0 nM): > 45.8 µM | IC50 cell viability (ICRF193 200 nM): > 45.8 µM

O=C(O)CCNC(=O)c1ccc(/N=N/c2ccc(O)c(C(=O)O)c2)cc1 [Balsalazide disodium]
IC50 cell viability (ICRF193 0 nM): > 45.8 µM | IC50 cell viability (ICRF193 200 nM): > 45.8 µM

CN(C)C(=O)Oc1cc(OC(=O)N(C)C)cc(C(O)CNC(C)(C)C)c1 (centres undefined) [Bambuterol hydrochloride]
IC50 cell viability (ICRF193 0 nM): > 45.8 µM | IC50 cell viability (ICRF193 200 nM): > 45.8 µM

CCCCNCC(O)c1ccc(O)cc1 (centres undefined) [Bamethan]
IC50 cell viability (ICRF193 0 nM): > 45.8 µM | IC50 cell viability (ICRF193 200 nM): > 45.8 µM

COc1nc2ccc(Br)cc2cc1[C@@H](c1ccccc1)[C@@](O)(CCN(C)C)c1cccc2ccccc12 [Bedaquiline (TMC-207)]
IC50 cell viability (ICRF193 0 nM): > 45.8 µM | IC50 cell viability (ICRF193 200 nM): > 45.8 µM

CC(=O)c1cc2cccc(OCC(O)CNC(C)C)c2o1 (centres undefined) [Befunolol]
IC50 cell viability (ICRF193 0 nM): > 45.8 µM | IC50 cell viability (ICRF193 200 nM): > 45.8 µM

CCC1(C)CC(=O)NC(=O)C1 [Bemegride]
IC50 cell viability (ICRF193 0 nM): > 45.8 µM | IC50 cell viability (ICRF193 200 nM): > 45.8 µM

CCOC(=O)[C@H](CCc1ccccc1)N[C@H]1CCc2ccccc2N(CC(=O)O)C1=O [Benazepril]
IC50 cell viability (ICRF193 0 nM): > 45.8 µM | IC50 cell viability (ICRF193 200 nM): > 45.8 µM

CN(C)CCCOC1(Cc2ccccc2)CCCCCC1 [Bencyclane]
IC50 cell viability (ICRF193 0 nM): > 45.8 µM | IC50 cell viability (ICRF193 200 nM): > 45.8 µM

Cn1c(CCCC(=O)O)nc2cc(N(CCCl)CCCl)ccc21 [Bendamustine]
IC50 cell viability (ICRF193 0 nM): > 45.8 µM | IC50 cell viability (ICRF193 200 nM): > 45.8 µM

O=C(O)COc1nn(Cc2ccccc2)c2ccccc12 [Bendazac sodium]
IC50 cell viability (ICRF193 0 nM): > 45.8 µM | IC50 cell viability (ICRF193 200 nM): > 45.8 µM
